The assay has as its system recombinant NL4-3 virus (Renilla luciferase in nef, Gag P373S). Nature of the assay: HIV cell culture assay (luciferase activity in MT-2 cells infected with NLRluc recombinant virus). The class given is cell-based. Particulars: NL43, MT-2 cells infected 4-5 days with NLRluc recombinant virus, class symbol. In short, it runs like this:
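Activity was read as luciferase output (Dual Luciferase reagents premixed with lysis solution) after 4–5 days of infection in serially diluted inhibitor. Host cells were MT-2 in 10% FBS RPMI. The reporter virus came from transfected 293T cells and was titered on MT-2.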

These results are taken from US8748415B2 (priority 2011, dated 2014).

As usually defined, the EC50 is the concentration that produces a half-maximal response. For the compound `C=C(C)[C@@H]1CC[C@]2(CNCCC(=O)N3CCC(C(=O)OCC)CC3)CC[C@]3(C)[C@H](CC[C@@H]4[C@@]5(C)CC=C(c6ccc(C(=O)O)cc6)C(C)(C)[C@@H]5CC[C@]43C)[C@@H]12` [Example 98, 4-((1R,3aS,5aR,5bR,7aR,11aS,11bR,13aR,13bR)-3a-((3-(4-(ethoxycarbonyl)piperidin-1-yl)-3-oxopropylamino)methyl)-5a,5b,8,8,11a-pentamethyl-1-(prop-1-en-2-yl)-2,3,3a,4,5,5a,5b,6,7,7a,8,11,11a,11b,12,13,13a,13b-octadecahydro-1H-cyclopenta[a]chrysen-9-yl)benzoic acid], the EC50 was < 100 nM.
As for `C=C(C)[C@@H]1CC[C@]2(CNCCC(=O)NCCC(=O)N(C)C)CC[C@]3(C)[C@H](CC[C@@H]4[C@@]5(C)CC=C(c6ccc(C(=O)O)cc6)C(C)(C)[C@@H]5CC[C@]43C)[C@@H]12` [Example 99, 4-((1R,3aS,5aR,5bR,7aR,11aS,11bR,13aR,13bR)-3a-((3-(3-(dimethylamino)-3-oxopropylamino)-3-oxopropylamino)methyl)-5a,5b,8,8,11a-pentamethyl-1-(prop-1-en-2-yl)-2,3,3a,4,5,5a,5b,6,7,7a,8,11,11a,11b,12,13,13a,13b-octadecahydro-1H-cyclopenta[a]chrysen-9-yl)benzoic acid], the EC50 was < 100 nM.
With `C=C(C)[C@@H]1CC[C@]2(CNCCC(=O)N3CCC[C@@H]3C(=O)O)CC[C@]3(C)[C@H](CC[C@@H]4[C@@]5(C)CC=C(c6ccc(C(=O)O)cc6)C(C)(C)[C@@H]5CC[C@]43C)[C@@H]12` [Example 100, (R)-1-(3-(((1R,3aS,5aR,5bR,7aR,11aS,11bR,13aR,13bR)-9-(4-carboxyphenyl)-5a,5b,8,8,11a-pentamethyl-1-(prop-1-en-2-yl)-2,3,3a,4,5,5a,5b,6,7,7a,8,11,11a,11b,12,13,13a,13b-octadecahydro-1H-cyclopenta[a]chrysen-3a-yl)methylamino)propanoyl)pyrrolidine-2-carboxylic acid], the EC50 was < 100 nM.
The figure for `C=C(C)[C@@H]1CC[C@]2(CNCCC(=O)N3CCC[C@H]3C(=O)OC)CC[C@]3(C)[C@H](CC[C@@H]4[C@@]5(C)CC=C(c6ccc(C(=O)O)cc6)C(C)(C)[C@@H]5CC[C@]43C)[C@@H]12` [Example 101, 4-((1R,3aS,5aR,5bR,7aR,11aS,11bR,13aR,13bR)-3a-((3-((S)-2-(methoxycarbonyl)pyrrolidin-1-yl)-3-oxopropylamino)methyl)-5a,5b,8,8,11a-pentamethyl-1-(prop-1-en-2-yl)-2,3,3a,4,5,5a,5b,6,7,7a,8,11,11a,11b,12,13,13a,13b-octadecahydro-1H-cyclopenta[a]chrysen-9-yl)benzoic acid] is < 100 nM.
`C=C(C)[C@@H]1CC[C@]2(CNCCC(=O)N3CCC[C@H]3C(=O)O)CC[C@]3(C)[C@H](CC[C@@H]4[C@@]5(C)CC=C(c6ccc(C(=O)O)cc6)C(C)(C)[C@@H]5CC[C@]43C)[C@@H]12` [Example 102, (S)-1-(3-(((1R,3aS,5aR,5bR,7aR,11aS,11bR,13aR,13bR)-9-(4-carboxyphenyl)-5a,5b,8,8,11a-pentamethyl-1-(prop-1-en-2-yl)-2,3,3a,4,5,5a,5b,6,7,7a,8,11,11a,11b,12,13,13a,13b-octadecahydro-1H-cyclopenta[a]chrysen-3a-yl)methylamino)propanoyl)pyrrolidine-2-carboxylic acid]: the EC50 was < 100 nM.
The figure for `C=C(C)[C@@H]1CC[C@]2(CNCCC(=O)N3CCC(F)(F)C3)CC[C@]3(C)[C@H](CC[C@@H]4[C@@]5(C)CC=C(c6ccc(C(=O)O)cc6)C(C)(C)[C@@H]5CC[C@]43C)[C@@H]12` [Example 103, 4-((1R,3aS,5aR,5bR,7aR,11aS,11bR,13aR,13bR)-3a-((3-(3,3-difluoropyrrolidin-1-yl)-3-oxopropylamino)methyl)-5a,5b,8,8,11a-pentamethyl-1-(prop-1-en-2-yl)-2,3,3a,4,5,5a,5b,6,7,7a,8,11,11a,11b,12,13,13a,13b-octadecahydro-1H-cyclopenta[a]chrysen-9-yl)benzoic acid] is < 100 nM.
